Data: PMC7753147, “High-throughput determination of protein affinities using unmodified peptide libraries in nanomolar scale” (iScience, 2020)

Legend:
gephE = assay: µSPOT peptide microarray binding assay with recombinant gephE
native geph = assay: µSPOT peptide microarray binding assay with native geph from mouse brain lysate
FL-geph = assay: µSPOT peptide microarray binding assay with full-length geph
[1] = µSPOT full positional scan of GlyRβ 15-mer DLRSNDFSIVGSLPR, intensity normalised to wild-type sequence (= 1)
[2] = µSPOT full positional scan of GlyRβ 15-mer DLRSNDFSIVGSLPR, native geph, intensity normalised to wild-type sequence (= 1)
[3] = overlapping GlyR β peptide library on µSPOT array, 50 nM gephE, anti-gephyrin 3B11/HRP chemiluminescence, normalized to most prominent spot, n = 2 array-internal duplicate
[4] = overlapping GlyR β peptide library on µSPOT array, 3% mouse brain lysate, normalized to most prominent spot, n = 2 array-internal duplicate
[5] = overlapping GABAAR α3 peptide library on µSPOT array, 20 nM gephE, normalized to most prominent spot, n = 2 array-internal duplicate
[6] = overlapping GABAAR α3 peptide library on µSPOT array, 6% mouse brain lysate, normalized to most prominent spot, n = 2 array-internal duplicate

Sequence	gephE Binding Intensity [norm.] (gephE; [3])	Native geph Binding Intensity [norm.] (native geph; [4])	gephE Binding Intensity [norm.] (gephE; [5])	Native geph Binding Intensity [norm.] (native geph; [6])	further results
DLRSNDFSIVGSLVR [GlyRβ_Full_Positional_Scan_266]					gephE Binding Intensity [norm.] (gephE; [1]): 0.62 norm.; Native geph Binding Intensity [norm.] (native geph; [2]): 0.45 norm.; Fl-geph Binding Intensity [norm.] (FL-geph; [1]): 0.91 norm.
DLRSNKFSIVGSLPR [GlyRβ_Full_Positional_Scan_114]					gephE Binding Intensity [norm.] (gephE; µSPOT peptide microarray, GlyRβ full positional scan, recombinant gephE, intensity normalised to wild-type sequence DLRSNDFSIVGSLPR (=1)): 0.8 norm.; Native geph Binding Intensity [norm.] (native geph; µSPOT peptide microarray, GlyRβ full positional scan, native geph from mouse brain lysate, intensity normalised to wild-type sequence DLRSNDFSIVGSLPR (=1)): 0.37 norm.; Fl-geph Binding Intensity [norm.] (FL-geph; µSPOT peptide microarray, GlyRβ full positional scan, intensity normalised to wild-type sequence DLRSNDFSIVGSLPR (=1)): 0.98 norm.
DLRSNDFSIVGSPPR [GlyRβ_Full_Positional_Scan_245]					gephE Binding Intensity [norm.] (gephE; [1]): 0.89 norm.; Native geph Binding Intensity [norm.] (native geph; [2]): 0.78 norm.; Fl-geph Binding Intensity [norm.] (FL-geph; [1]): 0.96 norm.
NNPKRVEAEKARIAKAEQAD [Glycine receptor subunit beta_003, GlyR β residues 355-374]	0.023	0.109			
KRVEAEKARIAKAEQADGKG [Glycine receptor subunit beta_004]	0.052	0.117			
VMLNNPKRVEAEKARIAKAE [Glycine receptor subunit beta_002, GlyR β residues 352-371]	0.010	0.082			
STPTAIASPKATYVQDSPAE [GABAAR α3 residues 426-445, µSpot library]			0.019	0.067	
KDTEFSTISKSAAAPSASST [GABAAR α3 residues 408-427, µSpot library]			0.020	0.136	
KKNTTFNIVGTTYPINLAKD [GABAAR α3 residues 390-409, µSpot library]			0.443	0.243	
ASPKATYVQDSPAETKTYNS [GABAAR α3 residues 432-451, µSpot library]			0.020	0.050	
EFSTISKSAAAPSASSTPTA [GABAAR α3 residues 411-430, µSpot library]			0.028	0.127	
NIVGTTYPINLAKDTEFSTI [GABAAR α3 residues 396-415, µSpot library]			0.044	0.114	
SASSTPTAIASPKATYVQDS [GABAAR α3 residues 423-442, µSpot library]			0.022	0.075	
TAIASPKATYVQDSPAETKT [GABAAR α3 residues 429-448, µSpot library]			0.018	0.060	
KATYVQDSPAETKTYNSVSK [GABAAR α3 residues 435-454, µSpot library]			0.070	0.059	
GTTYPINLAKDTEFSTISKS [GABAAR α3 residues 399-418, µSpot library]			0.030	0.098	
VVQVMLNNPKRVEAEKARIA [Glycine receptor subunit beta_001, GlyR β residues 349-368]	0.017	0.081			
TTFNIVGTTYPINLAKDTEF [GABAAR α3 residues 393-412, µSpot library]			0.457	0.538	
YVQDSPAETKTYNSVSKVDK [GABAAR α3 residues 438-457, µSpot library]			0.073	0.058	
TISKSAAAPSASSTPTAIAS [GABAAR α3 residues 414-433, µSpot library]			0.024	0.116	

More lines, main results first:

gephE Binding Intensity [norm.] (gephE; [3])	Native geph Binding Intensity [norm.] (native geph; [4])	gephE Binding Intensity [norm.] (gephE; [5])	Native geph Binding Intensity [norm.] (native geph; [6])	Sequence	further results
0.049	0.093			DCYGKPIEVNNGLGKPQAKN [Glycine receptor subunit beta_030, GlyR β residues 436-455]	
0.013	0.060			TPVHISTLQVGETRCKKVCT [Glycine receptor subunit beta_015, GlyR β residues 391-410]	
0.599	0.561			NDFSIVGSLPRDFELSNYDC [Glycine receptor subunit beta_024, GlyR β residues 418-437]	
		0.049	0.033	TKRSWAWEGKKVPEALEMKK	
0.024	0.077			KGGNAAKKNTVNGTGTPVHI [Glycine receptor subunit beta_010]	
0.393	0.309			KKVCTSKSDLRSNDFSIVGS [Glycine receptor subunit beta_020, GlyR β residues 406-425]	
0.023	0.085			KKNTVNGTGTPVHISTLQVG [Glycine receptor subunit beta_012]	
0.011	0.077			NAAKKNTVNGTGTPVHISTL [Glycine receptor subunit beta_011, GlyR β residues 379-398]	
0.036	0.069			GKPIEVNNGLGKPQAKNKKP [Glycine receptor subunit beta_031, GlyR β residues 439-458]	
0.112	0.180			FELSNYDCYGKPIEVNNGLG [Glycine receptor subunit beta_028, GlyR β residues 430-449]	
0.040	0.091			KARIAKAEQADGKGGNAAKK [Glycine receptor subunit beta_006, GlyR β residues 364-383]	
0.011	0.074			VGETRCKKVCTSKSDLRSND [Glycine receptor subunit beta_018, GlyR β residues 400-419]	
0.216	0.204			SNYDCYGKPIEVNNGLGKPQ [Glycine receptor subunit beta_029, GlyR β residues 433-452]	
0.428	0.521			PRDFELSNYDCYGKPIEVNN [Glycine receptor subunit beta_027, GlyR β residues 427-446]	
0.291	0.301			SIVGSLPRDFELSNYDCYGK [Glycine receptor subunit beta_025, GlyR β residues 421-440]	
0.024	0.113			EAEKARIAKAEQADGKGGNA [Glycine receptor subunit beta_005, GlyR β residues 361-380]	
0.044	0.068			GTGTPVHISTLQVGETRCKK [Glycine receptor subunit beta_014, GlyR β residues 388-407]	
0.972	0.945			KSDLRSNDFSIVGSLPRDFE [Glycine receptor subunit beta_022, GlyR β residues 412-431]	
0.023	0.065			AEQADGKGGNAAKKNTVNGT [Glycine receptor subunit beta_008, GlyR β residues 370-389]	
0.042	0.042			HISTLQVGETRCKKVCTSKS [Glycine receptor subunit beta_016, GlyR β residues 394-413]	
0.037	0.075			KPPPAKPVIPTAAKRIDL [Glycine receptor subunit beta_037, GlyR β residues 457-474]	
0.012	0.087			PQAKNKKPPPAKPVIPTAAK [Glycine receptor subunit beta_035, GlyR β residues 451-470]	
0.025	0.066			IAKAEQADGKGGNAAKKNTV [Glycine receptor subunit beta_007]	
0.033	0.089			TRCKKVCTSKSDLRSNDFSI [Glycine receptor subunit beta_019, GlyR β residues 403-422]	
		0.064	0.118	SWAWEGKKVPEALEMKKKTP	
0.132	0.134			GSLPRDFELSNYDCYGKPIE [Glycine receptor subunit beta_026, GlyR β residues 424-443]	
